Measurements reported in PubChem BioAssay AID2060885 (Molecular Pharmacology Branch, DTP, NCI, 2025).
pIC50: −log10 of the molar value.

Tested on: NCI-H23 complex spheroids with HUVEC/MSC, viability
Test: Anticancer human tumor NCI-H23 cell line growth inhibition [RAS];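 also: spheroids exposed to compound for 7 days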;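 as to viability, T/C: 100% = DMSO vehicle control viability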
Settings: for pIC50: curve of first compound; for viability, T/C: stronger effect = lower value
In short: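 Agents were tested in combination matrices in half-log decrements from a top concentration at or near clinical Cmax (10 microM if undetermined). Targets were multi-cell spheroids of tumour lines plus HUVEC and MSC stromal cells.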

Work on `CC(Nc1ccc2c(c1)OCCn1cc(N3C(=O)OCC3C(F)F)nc1-2)C(N)=O` (centres undefined) + C=CC(=O)N1CCN(c2nc(OCC3CCCN3C)nc3c(F)c(-c4nc(N)cc(C)c4C(F)(F)F)c(Cl)cc23)C(C)C1 yielded a pIC50 (second compound 0.00316 µM) of 6.85, a pIC50 (second compound 0.01 µM) greater than 7.50 and a pIC50 (second compound 0.0316 µM) greater than 7.50. It also gave a pIC50 (second compound 0.1 µM) greater than 7.50, a pIC50 (second compound 0.316 µM) greater than 7.50 and a pIC50 (second compound 1 µM) greater than 7.50. The viability, T/C (second compound 0.00316 µM, first compound 0.0316 µM) was 51.2%, the viability, T/C (second compound 0.00316 µM, first compound 0.1 µM) was 60.2% and the viability, T/C (second compound 0.00316 µM, first compound 0.316 µM) was 34.6%. For the same compound, the viability, T/C (second compound 0.00316 µM, first compound 1 µM) was 39.1%, the viability, T/C (second compound 0.00316 µM, first compound 3.16 µM) was 35.8% and the viability, T/C (second compound 0.00316 µM, first compound 10 µM) was 38.3%. It also gave a viability, T/C (second compound 0.01 µM, first compound 0.0316 µM) of 43.8%, a viability, T/C (second compound 0.01 µM, first compound 0.1 µM) of 40.7% and a viability, T/C (second compound 0.01 µM, first compound 0.316 µM) of 35.9%. It also gave a viability, T/C (second compound 0.01 µM, first compound 1 µM) of 28.7%, a viability, T/C (second compound 0.01 µM, first compound 3.16 µM) of 31% and a viability, T/C (second compound 0.01 µM, first compound 10 µM) of 26.5%. The viability, T/C (second compound 0.0316 µM, first compound 0.0316 µM) was 36.4%, the viability, T/C (second compound 0.0316 µM, first compound 0.1 µM) was 35.5% and the viability, T/C (second compound 0.0316 µM, first compound 0.316 µM) was 27.2%. For the same compound, the viability, T/C (second compound 0.0316 µM, first compound 1 µM) was 27.3%, the viability, T/C (second compound 0.0316 µM, first compound 3.16 µM) was 24.8% and the viability, T/C (second compound 0.0316 µM, first compound 10 µM) was 23.3%. For the same compound, the viability, T/C (second compound 0.1 µM, first compound 0.0316 µM) was 31.4%, the viability, T/C (second compound 0.1 µM, first compound 0.1 µM) was 29.3% and the viability, T/C (second compound 0.1 µM, first compound 0.316 µM) was 26.4%. It also gave a viability, T/C (second compound 0.1 µM, first compound 1 µM) of 27.6%, a viability, T/C (second compound 0.1 µM, first compound 3.16 µM) of 22.9% and a viability, T/C (second compound 0.1 µM, first compound 10 µM) of 22.4%. It also gave a viability, T/C (second compound 0.316 µM, first compound 0.0316 µM) of 28.7%, a viability, T/C (second compound 0.316 µM, first compound 0.1 µM) of 31.2% and a viability, T/C (second compound 0.316 µM, first compound 0.316 µM) of 30%. The viability, T/C (second compound 0.316 µM, first compound 1 µM) was 23.7%, the viability, T/C (second compound 0.316 µM, first compound 3.16 µM) was 25.9% and the viability, T/C (second compound 0.316 µM, first compound 10 µM) was 24.3%. The viability, T/C (second compound 1 µM, first compound 0.0316 µM) was 33%, the viability, T/C (second compound 1 µM, first compound 0.1 µM) was 33.5% and the viability, T/C (second compound 1 µM, first compound 0.316 µM) was 28.8%. The viability, T/C (second compound 1 µM, first compound 1 µM) was 22.5%, the viability, T/C (second compound 1 µM, first compound 3.16 µM) was 27.8% and the viability, T/C (second compound 1 µM, first compound 10 µM) was 25%.
With `CC1(C)CCC(Nc2ncc(C(F)(F)F)c(-c3c[nH]c4c(P(C)(C)=O)c(C#N)ccc34)n2)CN1` (centres undefined) + CCn1c(-c2cccnc2C(C)OC)c2c3cc(ccc31)N1CCOC(CC(NC(=O)C(C(C)C)N(C)C(=O)C3(F)CCN(C(=O)C#CC(C)(C)N(C)C)CC3)C(=O)N3CCCC(N3)C(=O)OCC(C)(C)C2)C1 the pIC50 (second compound 0.000949 µM) was greater than 9.02, the pIC50 (second compound 0.003 µM) was greater than 9.02 and the pIC50 (second compound 0.00949 µM) was greater than 9.02. It also gave a pIC50 (second compound 0.03 µM) greater than 9.02, a pIC50 (second compound 0.0949 µM) greater than 9.02 and a pIC50 (second compound 0.3 µM) greater than 9.02. It also gave a viability, T/C (second compound 0.000949 µM, first compound 0.000949 µM) of 26%, a viability, T/C (second compound 0.000949 µM, first compound 0.003 µM) of 21.2% and a viability, T/C (second compound 0.000949 µM, first compound 0.00949 µM) of 14%. For the same compound, the viability, T/C (second compound 0.000949 µM, first compound 0.03 µM) was 16.1%, the viability, T/C (second compound 0.000949 µM, first compound 0.0949 µM) was 14.7% and the viability, T/C (second compound 0.000949 µM, first compound 0.3 µM) was 11.3%. The viability, T/C (second compound 0.003 µM, first compound 0.000949 µM) was 22.4%, the viability, T/C (second compound 0.003 µM, first compound 0.003 µM) was 17.4% and the viability, T/C (second compound 0.003 µM, first compound 0.00949 µM) was 15.5%. The viability, T/C (second compound 0.003 µM, first compound 0.03 µM) was 15.2%, the viability, T/C (second compound 0.003 µM, first compound 0.0949 µM) was 15% and the viability, T/C (second compound 0.003 µM, first compound 0.3 µM) was 11.6%. The viability, T/C (second compound 0.00949 µM, first compound 0.000949 µM) was 23.9%, the viability, T/C (second compound 0.00949 µM, first compound 0.003 µM) was 17.5% and the viability, T/C (second compound 0.00949 µM, first compound 0.00949 µM) was 15.9%. For the same compound, the viability, T/C (second compound 0.00949 µM, first compound 0.03 µM) was 15%, the viability, T/C (second compound 0.00949 µM, first compound 0.0949 µM) was 13.1% and the viability, T/C (second compound 0.00949 µM, first compound 0.3 µM) was 13.2%. The viability, T/C (second compound 0.03 µM, first compound 0.000949 µM) was 21.9%, the viability, T/C (second compound 0.03 µM, first compound 0.003 µM) was 19.2% and the viability, T/C (second compound 0.03 µM, first compound 0.00949 µM) was 17.8%. The viability, T/C (second compound 0.03 µM, first compound 0.03 µM) was 15.7%, the viability, T/C (second compound 0.03 µM, first compound 0.0949 µM) was 12.4% and the viability, T/C (second compound 0.03 µM, first compound 0.3 µM) was 13.3%. It also gave a viability, T/C (second compound 0.0949 µM, first compound 0.000949 µM) of 21.8%, a viability, T/C (second compound 0.0949 µM, first compound 0.003 µM) of 19.2% and a viability, T/C (second compound 0.0949 µM, first compound 0.00949 µM) of 16.8%. For the same compound, the viability, T/C (second compound 0.0949 µM, first compound 0.03 µM) was 13.8%, the viability, T/C (second compound 0.0949 µM, first compound 0.0949 µM) was 11.8% and the viability, T/C (second compound 0.0949 µM, first compound 0.3 µM) was 13.2%. The viability, T/C (second compound 0.3 µM, first compound 0.000949 µM) was 18.8%, the viability, T/C (second compound 0.3 µM, first compound 0.003 µM) was 17.9% and the viability, T/C (second compound 0.3 µM, first compound 0.00949 µM) was 15.3%. It also gave a viability, T/C (second compound 0.3 µM, first compound 0.03 µM) of 12.3%, a viability, T/C (second compound 0.3 µM, first compound 0.0949 µM) of 11.3% and a viability, T/C (second compound 0.3 µM, first compound 0.3 µM) of 13.7%.
